Experimental findings from patent publication US8895474B2, “Herbicidally active cyclopentanediones and derivatives thereof, and their use in controlling weeds” (Syngenta Limited, priority 2009, dated 2014) are described below.

Holding throughout (assay type): in vivo
Details in all cases: 312 h, rate 250 g/ha, evaluated after 13 days, 100=total damage to plant, 0=no damage to plant

Assay [1] has as its system Alopecurus myosuroides (ALOMY). The assay is described as follows: Pre-emergence herbicidal activity, glasshouse pot test. The protocol:
(§1) Seeds of a variety of test species were sown in standard soil in pots. After cultivation for one day (pre-emergence) or after 8 days cultivation (post-emergence) under controlled conditions in a glasshouse (at 24/16° C., day/night; 14 hours light; 65% humidity), the plants were sprayed with an aqueous spray solution derived from the formulation of the technical active ingredient in acetone/water (50:50) solution containing 0.5% Tween 20 (polyoxyethelyene sorbitan monolaurate, CAS RN 9005-64-5). The test plants were then grown in a glasshouse under controlled conditions in a glasshouse (at 24/16° C., day/night; 14 hours light; 65% humidity) and watered twice daily. After 13 days for pre and post-emergence, the test was evaluated (100=total damage to plant; 0=no damage to plant). Test Plants: Lolium perenne (LOLPE), Alopecurus myosuroides (ALOMY), Echinochloa crus-galli (ECHCG), and Avena fatua (AVEFA). Pre-Emergence Activity

The test system of assay [2] is Avena fatua (AVEFA). The description is as above. The protocol: as §1
Assay [3] has as its system Echinochloa crus-galli (ECHCG). The assay is described as above. How it is done:
as §1

Assay [4] concerns Lolium perenne (LOLPE). The assay is described as above. The protocol: as §1
Assay [5] concerns Alopecurus myosuroides (ALOMY). The assay is described as follows: Post-emergence herbicidal activity, glasshouse pot test. How it is done: as §1, with “Post-Emergence” for “Pre-Emergence”
Assay [6] deals with Avena fatua (AVEFA). Described as above. The protocol: as §1, with “Post-Emergence” for “Pre-Emergence”
The test system of assay [7] is Echinochloa crus-galli (ECHCG). Described as above. The protocol:
as §1, with “Post-Emergence” for “Pre-Emergence”

Assay [8] has as its system Lolium perenne (LOLPE). The assay is described as above. The protocol: as §1, with “Post-Emergence” for “Pre-Emergence”

As to `CCc1ccc(Oc2ccc(Cl)cc2F)cc1C1=C(O)CCC1=O` [Compound A-40], the pest or weed control at 250 g/ha in assay [1] turned out to be 0%; with Avena fatua (AVEFA) [2] it was 0%; in assay [3] it was 40%; with Lolium perenne (LOLPE) [4], 10%; in assay [5] it was 10%; with Avena fatua (AVEFA) [6], 10%. Also, the pest or weed control at 250 g/ha in assay [7] amounted to 30%; with Lolium perenne (LOLPE) [8], 10%.
As to `CCc1ccc(Oc2ccc(Br)cc2Cl)cc1C1=C(O)CCC1=O` [Compound A-35], the pest or weed control at 250 g/ha in assay [1] came out at 30%; in the assay with Avena fatua (AVEFA) [2], 10%; in assay [3], 20%; in the assay on Lolium perenne (LOLPE) [4], 60%; in assay [5], 10%; with Avena fatua (AVEFA) [6], 20%. The pest or weed control at 250 g/ha amounted to 30% in assay [7] and 20% with Lolium perenne (LOLPE) [8].
With `CCc1ccc(Oc2ccc(C#N)cc2)cc1C1=C(O)C2C(C1=O)[C@H]1CC[C@@H]2CC1` (some centres unmarked) [Compound A-15], the pest or weed control at 250 g/ha in assay [1] turned out to be 30%; in the assay with Avena fatua (AVEFA) [2], 0%; in assay [3], 100%; in the assay on Lolium perenne (LOLPE) [4], 10%; in assay [5], 30%; in the assay on Avena fatua (AVEFA) [6], 30%. In addition, the pest or weed control at 250 g/ha in assay [7] was determined as 80%; in the assay with Lolium perenne (LOLPE) [8], 30%.
Take `CCc1ccc(Oc2ccc(F)c(Cl)c2)cc1C1=C(O)[C@H]2[C@@H](C1=O)[C@@H]1CC[C@H]2O1` [Compound A-49]: the pest or weed control at 250 g/ha in assay [1] was 90%; in the assay with Avena fatua (AVEFA) [2], 90%; in assay [3], 100%; with Lolium perenne (LOLPE) [4], 100%; in assay [5], 90%; in the assay with Avena fatua (AVEFA) [6], 90%. Further, the pest or weed control at 250 g/ha (in assay [7]; in the assay on Lolium perenne (LOLPE) [8]) was 100% each time.
In the case of `CCc1ccc(Oc2ccc(Br)cc2Cl)cc1C1=C(O)C2C(C1=O)[C@H]1CC[C@@H]2CC1` (some centres unmarked) [Compound A-28], the pest or weed control at 250 g/ha in assay [1] amounted to 0%; in the assay with Avena fatua (AVEFA) [2], 0%; in assay [3], 20%; in the assay with Lolium perenne (LOLPE) [4], 0%; in assay [5] it was 0%; with Avena fatua (AVEFA) [6], 0%. Further, the pest or weed control at 250 g/ha was found to be 80% in assay [7] and 0% in the assay on Lolium perenne (LOLPE) [8].
In the case of `CCc1ccc(Oc2ncc(Cl)cc2Cl)cc1C1=C(O)C2C(C1=O)[C@H]1CC[C@@H]2CC1` (some centres unmarked) [Compound A-90], the pest or weed control at 250 g/ha in assay [1] was 70%; in the assay with Avena fatua (AVEFA) [2], 70%; in assay [3], 100%; in the assay with Lolium perenne (LOLPE) [4] it was 100%; in assay [5], 90%; in the assay on Avena fatua (AVEFA) [6] it was 100%. Further, the pest or weed control at 250 g/ha (in assay [7]; in the assay on Lolium perenne (LOLPE) [8]) was 100% in each case.
Consider `CCc1ccc(Oc2ccc(Cl)cc2)cc1C1=C(O)CCC1=O` [Compound A-39], for which the pest or weed control at 250 g/ha in assay [1] worked out at 20%; in the assay on Avena fatua (AVEFA) [2], 30%; in assay [3], 40%; in the assay with Lolium perenne (LOLPE) [4], 0%; in assay [5], 10%; in the assay on Avena fatua (AVEFA) [6], 0%. Moreover, the pest or weed control at 250 g/ha in assay [7] was 60%; in the assay on Lolium perenne (LOLPE) [8] it was 10%.
For the molecule `CCc1ccc(Oc2nc3ccccc3s2)cc1C1=C(O)C2C(C1=O)[C@H]1CC[C@@H]2CC1` (some centres unmarked) [Compound A-16], the pest or weed control at 250 g/ha in assay [1] turned out to be 40%; with Avena fatua (AVEFA) [2], 30%; in assay [3] it was 90%; in the assay on Lolium perenne (LOLPE) [4], 70%; in assay [5], 70%; in the assay on Avena fatua (AVEFA) [6], 90%. Moreover, the figures for the pest or weed control at 250 g/ha (in assay [7]; in the assay with Lolium perenne (LOLPE) [8]) were 100% and 70%, respectively.
On to `CCc1ccc(Oc2ccccc2Cl)cc1C1=C(O)[C@H]2[C@@H](C1=O)[C@@H]1CC[C@H]2O1` [Compound A-8], for which the pest or weed control at 250 g/ha in assay [1] amounted to 0%; in the assay with Avena fatua (AVEFA) [2], 0%; in assay [3] it was 40%; in the assay on Lolium perenne (LOLPE) [4], 40%; in assay [5], 20%; in the assay on Avena fatua (AVEFA) [6], 20%. Also, the pest or weed control at 250 g/ha in assay [7] turned out to be 70%; with Lolium perenne (LOLPE) [8] it was 20%.
With `CCc1ccc(Oc2cccc(Br)c2)cc1C1=C(O)[C@H]2[C@@H](C1=O)[C@@H]1CC[C@H]2O1` [Compound A-47], the pest or weed control at 250 g/ha in assay [1] was 60%; with Avena fatua (AVEFA) [2], 30%; in assay [3], 90%; with Lolium perenne (LOLPE) [4] it was 70%; in assay [5] it was 60%; with Avena fatua (AVEFA) [6], 30%. In addition, the results for the pest or weed control at 250 g/ha (in assay [7]; in the assay on Lolium perenne (LOLPE) [8]) were 90% and 70%, respectively.
In the case of `CCc1ccc(Oc2ccc(Br)cc2F)cc1C1=C(O)CCC1=O` [Compound A-42], the pest or weed control at 250 g/ha worked out at 0% in assay [1]; 0% in the assay on Avena fatua (AVEFA) [2]; 30% in assay [3]; 0% in the assay on Lolium perenne (LOLPE) [4]; 0% in assay [5]; 0% in the assay with Avena fatua (AVEFA) [6]. For the same molecule, the pest or weed control at 250 g/ha in assay [7] was found to be 70%; in the assay on Lolium perenne (LOLPE) [8] it was 10%.
`CCc1ccc(Oc2ccc3cc(Cl)ccc3n2)cc1C1=C(O)C2C3CCC(CC3)C2C1=O` (centres unmarked) [Compound A-53]: the pest or weed control at 250 g/ha in assay [1] was 80%; in the assay with Avena fatua (AVEFA) [2], 0%; in assay [3], 100%; in the assay on Lolium perenne (LOLPE) [4], 80%; in assay [5], 80%; with Avena fatua (AVEFA) [6] it was 80%. The pest or weed control at 250 g/ha (in assay [7]; in the assay with Lolium perenne (LOLPE) [8]) was 90% in each case.
Regarding `CCc1ccc(Oc2nc3ccc(OC)cc3s2)cc1C1=C(O)CCC1=O` [Compound A-75], the pest or weed control at 250 g/ha in assay [1] came out at 30%; in the assay with Avena fatua (AVEFA) [2], 20%; in assay [3] it was 100%; in the assay with Lolium perenne (LOLPE) [4], 80%; in assay [5], 10%; in the assay on Avena fatua (AVEFA) [6], 0%. For the same molecule, the pest or weed control at 250 g/ha in assay [7] was 40%; in the assay with Lolium perenne (LOLPE) [8], 20%.
Regarding `CCc1ccc(Oc2ccc(Cl)cc2F)cc1C1=C(O)[C@H]2[C@H]3CC[C@H](C3)[C@H]2C1=O` [Compound A-25], the pest or weed control at 250 g/ha in assay [1] came to 20%; in the assay with Avena fatua (AVEFA) [2] it was 30%; in assay [3], 70%; in the assay with Lolium perenne (LOLPE) [4] it was 70%; in assay [5] it was 50%; with Avena fatua (AVEFA) [6] it was 40%. The pest or weed control at 250 g/ha in assay [7] was 90%; with Lolium perenne (LOLPE) [8] it was 60%.
On to `CCc1ccc(Oc2ccc([N+](=O)[O-])c(Cl)c2)cc1C1=C(O)C2C(C1=O)[C@H]1CC[C@@H]2CC1` (some centres unmarked) [Compound A-86], for which the pest or weed control at 250 g/ha in assay [1] amounted to 0%; with Avena fatua (AVEFA) [2] it was 0%; in assay [3] it was 20%; in the assay with Lolium perenne (LOLPE) [4], 20%; in assay [5], 10%; in the assay with Avena fatua (AVEFA) [6], 10%. Further, the pest or weed control at 250 g/ha was 100% in assay [7] and 10% with Lolium perenne (LOLPE) [8].
For the molecule `CCc1ccc(Oc2ccc(Cl)cc2F)cc1C1=C(O)C2C(C1=O)[C@H]1CC[C@@H]2CC1` (some centres unmarked) [Compound A-32], the pest or weed control at 250 g/ha in assay [1] stood at 0%; in the assay on Avena fatua (AVEFA) [2], 0%; in assay [3] it was 60%; in the assay on Lolium perenne (LOLPE) [4] it was 40%; in assay [5], 90%; in the assay on Avena fatua (AVEFA) [6], 90%. Further, the pest or weed control at 250 g/ha was found to be 100% in assay [7] and 30% in the assay with Lolium perenne (LOLPE) [8].
